The values that follow come from PMC4685510, “A Cell Biologist’s Field Guide to Aurora Kinase Inhibitors” (Frontiers in Oncology, 2015).

Each structure is given as a SMILES string.

What all share (experiment): biochemical
Common to all, as to assay type: biochemical

Experiment [1] has as its target 363 human kinases (including Aurora A/B/C) (Homo sapiens, UniProt P49674). The conditions noted are these: CK1epsilon, [ATP] 50 µM; for remaining activity at 0.5 µM / remaining activity at 0.1 µM: read-out: % Enzyme Activity (relative to DMSO controls); for remaining activity at 0.1 µM: 100 nM.
Source text: (§1) However, the Aurora A/B selectivity ratios derived from our in vitro and in vivo data can be compared to prioritize inhibitors.
In experiment [2] the target is 363 human kinases (including Aurora A/B/C) (Homo sapiens, UniProt P49761). The conditions noted are these: CLK3, [ATP] 10 µM; for remaining activity at 0.5 µM / remaining activity at 0.1 µM: read-out: % Enzyme Activity (relative to DMSO controls); for remaining activity at 0.1 µM: 100 nM.
Sequence of 363 human kinases (including Aurora A/B/C) (Homo sapiens, UniProt P49761) (P49761 whole entry): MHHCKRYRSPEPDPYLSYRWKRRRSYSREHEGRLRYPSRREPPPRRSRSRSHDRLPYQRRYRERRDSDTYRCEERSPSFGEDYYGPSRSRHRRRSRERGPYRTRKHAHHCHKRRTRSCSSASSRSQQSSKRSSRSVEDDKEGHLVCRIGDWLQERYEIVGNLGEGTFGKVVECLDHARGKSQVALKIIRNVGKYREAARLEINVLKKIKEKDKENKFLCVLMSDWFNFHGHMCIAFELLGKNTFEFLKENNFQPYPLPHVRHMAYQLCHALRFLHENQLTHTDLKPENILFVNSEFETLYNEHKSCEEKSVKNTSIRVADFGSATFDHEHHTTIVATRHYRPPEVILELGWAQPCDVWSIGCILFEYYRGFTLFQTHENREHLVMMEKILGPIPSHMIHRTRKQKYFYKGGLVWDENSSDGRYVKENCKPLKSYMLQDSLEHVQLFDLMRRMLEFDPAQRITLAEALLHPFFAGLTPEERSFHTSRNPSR
Source text: as §1
Experiment [3] has as its target 363 human kinases (including Aurora A/B/C) (Homo sapiens, UniProt Q02779). The settings on record: MLK2/MAP3K10; for remaining activity at 0.5 µM / remaining activity at 0.1 µM: read-out: % Enzyme Activity (relative to DMSO controls); for remaining activity at 0.1 µM: 100 nM.
Source text: as §1
Experiment [4] has as its target T1, 363 human kinases (including Aurora A/B/C) (Homo sapiens, UniProt Q15139).
T1 sequence (Q15139 1-912): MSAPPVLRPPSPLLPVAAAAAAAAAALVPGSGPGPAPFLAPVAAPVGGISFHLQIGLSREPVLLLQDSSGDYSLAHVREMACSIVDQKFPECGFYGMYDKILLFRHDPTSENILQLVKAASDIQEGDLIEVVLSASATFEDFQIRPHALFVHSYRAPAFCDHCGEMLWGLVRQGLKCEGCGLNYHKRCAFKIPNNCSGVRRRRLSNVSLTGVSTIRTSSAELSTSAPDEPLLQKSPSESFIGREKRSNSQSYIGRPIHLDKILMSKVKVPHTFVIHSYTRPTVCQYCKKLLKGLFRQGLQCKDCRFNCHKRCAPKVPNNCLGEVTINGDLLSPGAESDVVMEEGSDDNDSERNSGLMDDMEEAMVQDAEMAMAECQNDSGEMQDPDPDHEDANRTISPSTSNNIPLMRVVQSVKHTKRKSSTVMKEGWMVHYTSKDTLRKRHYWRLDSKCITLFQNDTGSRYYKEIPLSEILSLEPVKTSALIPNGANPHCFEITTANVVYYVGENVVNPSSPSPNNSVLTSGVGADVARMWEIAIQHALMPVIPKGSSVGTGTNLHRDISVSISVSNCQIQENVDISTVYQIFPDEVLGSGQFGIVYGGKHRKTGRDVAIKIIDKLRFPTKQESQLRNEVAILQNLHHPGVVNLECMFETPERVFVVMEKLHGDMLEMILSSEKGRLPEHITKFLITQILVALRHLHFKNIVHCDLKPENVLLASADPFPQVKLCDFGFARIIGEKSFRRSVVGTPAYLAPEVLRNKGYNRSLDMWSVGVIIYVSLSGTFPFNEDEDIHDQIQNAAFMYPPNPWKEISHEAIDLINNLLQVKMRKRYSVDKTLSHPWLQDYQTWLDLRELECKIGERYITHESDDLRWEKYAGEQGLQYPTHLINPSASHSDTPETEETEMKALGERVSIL
The conditions noted are these: PKCmu/PRKD1; for remaining activity at 0.5 µM / remaining activity at 0.1 µM: read-out: % Enzyme Activity (relative to DMSO controls); for remaining activity at 0.1 µM: 100 nM.
Source text: as §1

For experiment [5], the target named is T2, 363 human kinases (including Aurora A/B/C) (Homo sapiens, UniProt Q16566).
T2 sequence (Q16566 1-473): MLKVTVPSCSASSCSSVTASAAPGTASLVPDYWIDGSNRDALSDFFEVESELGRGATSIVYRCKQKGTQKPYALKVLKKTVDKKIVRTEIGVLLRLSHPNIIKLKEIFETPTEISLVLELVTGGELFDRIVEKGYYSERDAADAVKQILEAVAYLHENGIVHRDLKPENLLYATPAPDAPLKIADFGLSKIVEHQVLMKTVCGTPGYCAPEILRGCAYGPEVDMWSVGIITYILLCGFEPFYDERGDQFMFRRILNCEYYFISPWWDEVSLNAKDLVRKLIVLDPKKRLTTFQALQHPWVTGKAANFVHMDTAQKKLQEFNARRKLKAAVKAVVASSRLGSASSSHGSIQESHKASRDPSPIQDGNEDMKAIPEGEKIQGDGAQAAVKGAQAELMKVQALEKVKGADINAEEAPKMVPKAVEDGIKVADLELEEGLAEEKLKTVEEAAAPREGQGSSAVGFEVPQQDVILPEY
The conditions noted are these: CAMK4, [ATP] 10 µM; for remaining activity at 0.5 µM / remaining activity at 0.1 µM: read-out: % Enzyme Activity (relative to DMSO controls); for remaining activity at 0.1 µM: 100 nM.
Source text: as §1

Experiment [6] concerns the target T3, 363 human kinases (including Aurora A/B/C) (Homo sapiens, UniProt Q99986).
T3 sequence (Q99986 1-396): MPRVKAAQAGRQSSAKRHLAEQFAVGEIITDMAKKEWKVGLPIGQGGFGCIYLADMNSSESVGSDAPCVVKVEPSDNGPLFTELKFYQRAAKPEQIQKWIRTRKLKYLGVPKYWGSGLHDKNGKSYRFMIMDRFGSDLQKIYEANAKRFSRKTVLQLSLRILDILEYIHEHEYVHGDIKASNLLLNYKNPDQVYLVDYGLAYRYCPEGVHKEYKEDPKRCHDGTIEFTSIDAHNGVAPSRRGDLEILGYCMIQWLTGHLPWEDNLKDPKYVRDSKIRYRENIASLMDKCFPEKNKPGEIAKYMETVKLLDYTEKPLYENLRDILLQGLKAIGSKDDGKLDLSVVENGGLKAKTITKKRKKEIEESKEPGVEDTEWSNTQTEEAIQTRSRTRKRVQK
The settings on record: VRK1; for remaining activity at 0.5 µM / remaining activity at 0.1 µM: read-out: % Enzyme Activity (relative to DMSO controls); for remaining activity at 0.1 µM: 100 nM.
Source text: as §1

Experiment [7] has as its target T4, 363 human kinases (including Aurora A/B/C) (Homo sapiens, UniProt Q9HBY8).
T4 sequence (Q9HBY8 1-367): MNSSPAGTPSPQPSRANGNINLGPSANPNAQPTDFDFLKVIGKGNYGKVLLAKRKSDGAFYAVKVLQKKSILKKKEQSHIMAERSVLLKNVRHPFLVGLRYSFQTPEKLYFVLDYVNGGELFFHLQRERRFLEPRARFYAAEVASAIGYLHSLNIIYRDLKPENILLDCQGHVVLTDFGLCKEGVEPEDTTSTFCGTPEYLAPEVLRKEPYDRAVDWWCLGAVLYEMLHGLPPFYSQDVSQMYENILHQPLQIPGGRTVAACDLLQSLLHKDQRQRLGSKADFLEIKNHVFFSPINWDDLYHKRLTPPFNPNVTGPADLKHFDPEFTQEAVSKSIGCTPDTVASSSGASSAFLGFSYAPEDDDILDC
The settings on record: SGK2; for remaining activity at 0.5 µM / remaining activity at 0.1 µM: read-out: % Enzyme Activity (relative to DMSO controls); for remaining activity at 0.1 µM: 100 nM.
Source text: as §1

Experiment [8] addresses 363 human kinases (including Aurora A/B/C) (Homo sapiens, UniProt Q9HC98). The conditions noted are these: NEK6; for remaining activity at 0.5 µM / remaining activity at 0.1 µM: read-out: % Enzyme Activity (relative to DMSO controls); for remaining activity at 0.1 µM: 100 nM.
Source text: as §1

Sequence of 363 human kinases (including Aurora A/B/C) (Homo sapiens, UniProt Q9HC98) (Q9HC98 whole entry): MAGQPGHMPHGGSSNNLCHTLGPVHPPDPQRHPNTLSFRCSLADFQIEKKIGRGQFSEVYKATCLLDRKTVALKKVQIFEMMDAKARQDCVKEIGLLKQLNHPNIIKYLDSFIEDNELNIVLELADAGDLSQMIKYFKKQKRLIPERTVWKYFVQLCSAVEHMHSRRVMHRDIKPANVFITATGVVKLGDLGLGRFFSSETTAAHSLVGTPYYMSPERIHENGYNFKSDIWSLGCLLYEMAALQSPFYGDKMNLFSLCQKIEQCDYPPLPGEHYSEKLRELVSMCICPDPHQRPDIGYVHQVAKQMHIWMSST
Sequence of 363 human kinases (including Aurora A/B/C) (Homo sapiens, UniProt Q02779) (Q02779 whole entry): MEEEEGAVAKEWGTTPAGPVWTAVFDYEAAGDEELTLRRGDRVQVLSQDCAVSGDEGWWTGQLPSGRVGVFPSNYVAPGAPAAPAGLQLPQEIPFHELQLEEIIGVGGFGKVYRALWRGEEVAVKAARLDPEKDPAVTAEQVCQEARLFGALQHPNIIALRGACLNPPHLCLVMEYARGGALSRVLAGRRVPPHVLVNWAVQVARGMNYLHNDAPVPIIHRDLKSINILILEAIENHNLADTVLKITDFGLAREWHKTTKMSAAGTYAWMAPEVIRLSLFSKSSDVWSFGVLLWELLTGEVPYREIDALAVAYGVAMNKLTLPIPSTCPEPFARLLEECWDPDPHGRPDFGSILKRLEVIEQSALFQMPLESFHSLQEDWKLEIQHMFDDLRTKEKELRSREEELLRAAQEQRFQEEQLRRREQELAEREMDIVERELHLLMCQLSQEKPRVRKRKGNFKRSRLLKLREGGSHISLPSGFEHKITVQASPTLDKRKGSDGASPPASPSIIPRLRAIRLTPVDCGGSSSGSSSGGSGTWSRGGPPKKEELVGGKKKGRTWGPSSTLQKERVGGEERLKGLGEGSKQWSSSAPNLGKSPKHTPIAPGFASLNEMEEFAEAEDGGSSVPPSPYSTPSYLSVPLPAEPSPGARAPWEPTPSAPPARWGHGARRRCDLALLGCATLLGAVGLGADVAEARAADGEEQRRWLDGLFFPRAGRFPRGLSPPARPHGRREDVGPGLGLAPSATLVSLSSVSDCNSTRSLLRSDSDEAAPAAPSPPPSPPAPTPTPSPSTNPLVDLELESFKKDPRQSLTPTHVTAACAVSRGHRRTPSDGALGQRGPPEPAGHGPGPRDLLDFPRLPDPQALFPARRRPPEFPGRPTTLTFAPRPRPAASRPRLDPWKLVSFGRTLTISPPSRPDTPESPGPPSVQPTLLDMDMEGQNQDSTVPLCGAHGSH
Sequence of 363 human kinases (including Aurora A/B/C) (Homo sapiens, UniProt P49674) (P49674 whole entry): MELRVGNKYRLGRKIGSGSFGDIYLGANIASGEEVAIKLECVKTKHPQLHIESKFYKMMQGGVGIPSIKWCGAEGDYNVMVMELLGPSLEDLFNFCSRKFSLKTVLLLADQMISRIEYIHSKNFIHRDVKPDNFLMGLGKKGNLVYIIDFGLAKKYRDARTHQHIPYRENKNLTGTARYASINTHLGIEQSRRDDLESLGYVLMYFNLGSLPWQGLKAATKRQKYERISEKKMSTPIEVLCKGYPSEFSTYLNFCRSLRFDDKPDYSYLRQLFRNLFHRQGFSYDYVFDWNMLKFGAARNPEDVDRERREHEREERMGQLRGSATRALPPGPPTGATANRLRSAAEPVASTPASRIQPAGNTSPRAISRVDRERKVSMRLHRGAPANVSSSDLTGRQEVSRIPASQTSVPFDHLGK

As for `O=C(c1cccc(Cl)c1F)N1CCN(Cc2cccc(Nc3nccs3)n2)CC1` [MK-8745], the “% Enzyme Activity (relative to DMSO controls)” value in experiment [1] (500 nM) amounted to 93.98%; in experiment [2] (500 nM), 82.30%; in experiment [3] (500 nM), 79.50%; in experiment [4] (500 nM) it was 97.14%; in experiment [5] (500 nM) it was 101.38%; in experiment [6] (500 nM) it was 94.39%. Besides, the “% Enzyme Activity (relative to DMSO controls)” value in experiment [7] (500 nM) amounted to 98.06%; in experiment [8] (500 nM), 99.72%. Besides, the remaining activity at 0.5 µM amounted to 94.9% in experiment [1] (500 nM); 82.7% in experiment [2] (500 nM); 79.9% in experiment [3] (500 nM); 98.5% in experiment [4] (500 nM); 102% in experiment [5] (500 nM); 97.3% in experiment [6] (500 nM). The remaining activity at 0.5 µM worked out at 100% in experiment [7] (500 nM) and 102% in experiment [8] (500 nM).

For `CCn1cc(-c2ccnc3[nH]c(-c4cccc(CN(C)C)c4)cc23)c(-c2ccc(NC(=O)N(C)C)cc2)n1` [GSK1070916], the remaining activity at 0.1 µM worked out at 95.8% in experiment [1]; 83.4% in experiment [2]; 75.6% in experiment [3]; 85.4% in experiment [4]; 98.5% in experiment [5]; 89.3% in experiment [6]. The results for the remaining activity at 0.1 µM in experiment [7] and in experiment [8] were 102% and 109%, respectively.

As for `O=C(O)[C@]1(Cc2cccc(Nc3nccs3)n2)CC[C@@H](Oc2cccc(Cl)c2F)CC1` [MK-5108], the remaining activity at 0.1 µM amounted to 98.1% in experiment [1]; 97.5% in experiment [2]; 23.5% in experiment [3]; 108% in experiment [4]; 93.4% in experiment [5]; 86.9% in experiment [6]. Further, the figures for the remaining activity at 0.1 µM in experiment [7] and in experiment [8] were 105% and 87%, respectively. Also, the remaining activity at 0.5 µM in experiment [1] (500 nM) is 91.5%; in experiment [2] (500 nM), 71.5%; in experiment [3] (500 nM), 5.55%; in experiment [4] (500 nM) it was 99%; in experiment [5] (500 nM) it was 99.8%; in experiment [6] (500 nM), 94%. Further, the remaining activity at 0.5 µM in experiment [7] (500 nM) turned out to be 105%; in experiment [8] (500 nM), 115%.
